The target of the assay is SIK2 (Homo sapiens (Human), UniProt Q9H0K1). Nature of the assay: SIK2 Enzymatic Assay Version 2 (High ATP). Type of assay: biochemical. The note with it: 3 mM ATP and 200 μM HDAC5tide final, ADP-Glo Max luminescence. Put shortly:
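Run at room temperature; SIK2 enzyme at 6 nM (2× final) preincubated with compound 30 min before reaction. ADP formation detected by ADP-Glo Max (2 h reagent, 1 h detection) with luminescence read-out.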
In general terms: ADP-Glo turns the ADP formed in a reaction into a luminescent signal.

Some results are limits rather than exact numbers.

Chain of SIK2 (Q9H0K1 whole entry, species assumed): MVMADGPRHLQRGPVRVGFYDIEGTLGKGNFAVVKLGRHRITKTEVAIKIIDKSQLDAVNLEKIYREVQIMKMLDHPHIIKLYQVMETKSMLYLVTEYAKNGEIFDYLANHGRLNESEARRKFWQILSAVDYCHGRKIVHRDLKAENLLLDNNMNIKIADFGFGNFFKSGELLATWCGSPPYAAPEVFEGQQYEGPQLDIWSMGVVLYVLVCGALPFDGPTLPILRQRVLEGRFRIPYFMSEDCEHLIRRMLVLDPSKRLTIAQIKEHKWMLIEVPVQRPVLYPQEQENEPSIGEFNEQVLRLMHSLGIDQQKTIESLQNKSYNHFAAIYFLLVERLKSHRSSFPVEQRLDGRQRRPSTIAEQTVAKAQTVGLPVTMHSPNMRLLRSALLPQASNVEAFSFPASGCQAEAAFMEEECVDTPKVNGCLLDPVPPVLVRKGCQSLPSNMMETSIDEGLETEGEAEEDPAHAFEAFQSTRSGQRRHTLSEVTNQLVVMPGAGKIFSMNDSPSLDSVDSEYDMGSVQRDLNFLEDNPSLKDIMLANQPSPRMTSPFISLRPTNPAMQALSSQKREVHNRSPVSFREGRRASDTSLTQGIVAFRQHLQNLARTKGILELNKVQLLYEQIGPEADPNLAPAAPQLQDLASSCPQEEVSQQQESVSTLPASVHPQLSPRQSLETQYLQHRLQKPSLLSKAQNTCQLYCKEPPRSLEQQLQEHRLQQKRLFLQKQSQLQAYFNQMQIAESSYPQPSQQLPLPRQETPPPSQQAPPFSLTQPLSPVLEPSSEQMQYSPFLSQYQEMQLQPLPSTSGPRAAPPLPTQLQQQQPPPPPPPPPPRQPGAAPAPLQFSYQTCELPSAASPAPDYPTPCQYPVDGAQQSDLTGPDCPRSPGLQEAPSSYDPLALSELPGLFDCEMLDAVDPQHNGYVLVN

The term IC50 denotes the midpoint of a concentration-inhibition curve. Higher therefore signals lower potency. `Cc1cc(Nc2cc3cc(-c4c(OC[C@@H](O)C5CCC5)cnn4C)ccn3n2)nc(C)n1` [Example 302, (S)-1-cyclobutyl-2-[5-[2-[(2,6-dimethylpyrimidin-4-yl)amino]pyrazolo[1,5-a]pyridin-5-yl]-1-methyl-pyrazol-4-yl]oxy-ethanol] gave a half-inhibitory concentration (IC50) of 28.3 nM. Then `Cc1onc(OC[C@H](c2ccccc2)N(C)C)c1-c1ccn2nc(NC(=O)C3CC3)cc2c1` [Example 207, N-[5-[3-[(2S)-2-(dimethylamino)-2-phenyl-ethoxy]-5-methyl-isoxazol-4-yl]pyrazolo[1,5-a]pyridin-2-yl]cyclopropanecarboxamide], with 7.6 nM. Then `Cc1onc(OC[C@@H]2CCCNC2)c1-c1ccn2nc(NC(=O)C3CC3)cc2c1` [Example 383, N-[5-[5-methyl-3-[[(3R)-3-piperidyl]methoxy]isoxazol-4-yl]pyrazolo[1,5-a]pyridin-2-yl]cyclopropanecarboxamide], with 89.9 nM; and `Cc1cc(Nc2cc3cc(-c4c(OC[C@@H]5COC(C)(C)C5)cnn4C)ccn3n2)nc(C)n1` (single isomer, unassigned) [Example 307, (*R)—N-(2,6-dimethylpyrimidin-4-yl)-5-[4-[(5,5-dimethyltetrahydrofuran-3-yl)methoxy]-2-methyl-pyrazol-3-yl]pyrazolo[1,5-a]pyridin-2-amine], with 30.9 nM; and `Cn1ncc(OC[C@@H](N)C(C)(C)O)c1-c1ccn2nc(NC(=O)C3CC3)cc2c1` [Example 426, N-[5-[4-[(2R)-2-amino-3-hydroxy-3-methyl-butoxy]-2-methyl-pyrazol-3-yl]pyrazolo[1,5-a]pyridin-2-yl]cyclopropanecarboxamide], with 71.6 nM. Then `Cc1cc(Nc2cc3cc(-c4c(OC[C@H]5CCN5C)cnn4C)ccn3n2)nc(NC2CCCC2)n1` [Example 129, N2-cyclopentyl-6-methyl-N4-[5-[2-methyl-4-[[(2R)-1-methylazetidin-2-yl]methoxy]pyrazol-3-yl]pyrazolo[1,5-a]pyridin-2-yl]pyrimidine-2,4-diamine], with < 0.847 nM; and `CCN1CC[C@@H]1COc1cnn(C)c1-c1ccn2nc(Nc3cnc(C(=O)OC)cn3)cc2c1` [Example 311, methyl 5-[[5-[4-[[(2R)-1-ethylazetidin-2-yl]methoxy]-2-methyl-pyrazol-3-yl]pyrazolo[1,5-a]pyridin-2-yl]amino]pyrazine-2-carboxylate], with 1.4 nM; and `Cn1ncc(OC[C@@H]2CCCN2)c1-c1ccn2nc(NC(=O)C3CC3)cc2c1` [Example 412, N-[5-[2-methyl-4-[[(2S)-pyrrolidin-2-yl]methoxy]pyrazol-3-yl]pyrazolo[1,5-a]pyridin-2-yl]cyclopropanecarboxamide], with 122 nM. `Cc1onc(OC[C@@H]2CCCCN2C)c1-c1ccn2nc(NC(=O)C3CC3)cc2c1` [Example 501, N-[5-[5-methyl-3-[[(2S)-1-methyl-2-piperidyl]methoxy]isoxazol-4-yl]pyrazolo[1,5-a]pyridin-2-yl]cyclopropanecarboxamide] displayed a half-maximal inhibitory concentration (IC50) of 355 nM. To `CO[C@@H]1CN(C)C[C@@H]1Oc1noc(C)c1-c1ccn2nc(NC(=O)C3CC3)cc2c1` (relative stereo) [Example 317, *S, *R—N-[5-[3-(4-methoxy-1-methyl-pyrrolidin-3-yl)oxy-5-methyl-isoxazol-4-yl]pyrazolo[1,5-a]pyridin-2-yl]cyclopropanecarboxamide] belongs 67.8 nM.

`CN1CC[C@H](Oc2cnn(C)c2-c2ccn3nc(Nc4cnccn4)cc3c2)C1` [Example 450, 5-[2-methyl-4-[(3S)-1-methylpyrrolidin-3-yl]oxy-pyrazol-3-yl]-N-pyrazin-2-yl-pyrazolo[1,5-a]pyridin-2-amine] registered a half-maximal inhibitory concentration (IC50) of 75.1 nM.

The molecule `Cc1cc(Nc2cc3cc(-c4c(OC[C@H]5CCN5C)cnn4C)ccn3n2)nc(C(F)(F)F)n1` [Example 63, 5-[2-methyl-4-[[(2R)-1-methylazetidin-2-yl]methoxy]pyrazol-3-yl]-N-[6-methyl-2-(trifluoromethyl)pyrimidin-4-yl]pyrazolo[1,5-a]pyridin-2-amine] came in with an IC50 of 1.1 nM. `C[C@H]1[C@H](COc2cnn(C)c2-c2ccn3nc(NC(=O)C4CC4)cc3c2)CN1C` (single isomer, unassigned) [Example 337, (2*S, 3*R)—N-[5-[4-[(1,2-dimethylazetidin-3-yl)methoxy]-2-methyl-pyrazol-3-yl]pyrazolo[1,5-a]pyridin-2-yl]cyclopropanecarboxamide] yielded a concentration for half-maximal inhibition (IC50) of 54.4 nM.

Regarding `Cc1onc(O[C@H]2CNC[C@H]2F)c1-c1ccn2nc(NC(=O)C3CC3)cc2c1` [Example 80, N-[5-[3-[(3S,4R)-4-fluoropyrrolidin-3-yl]oxy-5-methyl-isoxazol-4-yl]pyrazolo[1,5-a]pyridin-2-yl]cyclopropanecarboxamide], the IC50 was found to be 146 nM. To `COCCNC(=O)c1ccc(Nc2cc3cc(-c4c(OC[C@H]5CCN5C)cnn4C)ccn3n2)nc1` [Example 107, N-(2-methoxyethyl)-6-[[5-[2-methyl-4-[[(2R)-1-methylazetidin-2-yl]methoxy]pyrazol-3-yl]pyrazolo[1,5-a]pyridin-2-yl]amino]pyridine-3-carboxamide] belongs 3.3 nM. On to `CN1CC[C@H](Oc2cnn(C)c2-c2ccn3nc(Nc4cncc(C(F)(F)F)n4)cc3c2)C1` [Example 7, 5-[2-methyl-4-[(3S)-1-methylpyrrolidin-3-yl]oxy-pyrazol-3-yl]-N-[6-(trifluoromethyl)pyrazin-2-yl]pyrazolo[1,5-a]pyridin-2-amine], for which the IC50 amounted to 78.7 nM. To `Cc1onc(O[C@H]2CNCC2F)c1-c1ccn2nc(NC(=O)C3CC3)cc2c1` (single isomer, unassigned) [Example 210, N-(5-(3-(((3*S,4*R)-4-fluoropyrrolidin-3-yl)oxy)-5-methylisoxazol-4-yl)pyrazolo[1,5-a]pyridin-2-yl)cyclopropanecarboxamide] belongs 7.5 nM; to `CN1CC[C@H](Oc2cnn(C(F)F)c2-c2ccn3nc(NC(=O)C4CC4)cc3c2)C1` [Example 470, N-[5-[2-(difluoromethyl)-4-[(3S)-1-methylpyrrolidin-3-yl]oxy-pyrazol-3-yl]pyrazolo[1,5-a]pyridin-2-yl]cyclopropanecarboxamide], 143 nM; to `CCN1CC[C@@H]1COc1cnn(C(F)F)c1-c1ccn2nc(Nc3cnc(C)cn3)cc2c1` [Example 264, 5-[2-(difluoromethyl)-4-[[(2R)-1-ethylazetidin-2-yl]methoxy]pyrazol-3-yl]-N-(5-methylpyrazin-2-yl)pyrazolo[1,5-a]pyridin-2-amine], 7.7 nM. `[2H]C([2H])([2H])N1CC[C@@H]1COc1cnn(C)c1-c1ccn2nc(Nc3cc(C)nc(C)n3)cc2c1` [Example 290, N-(2,6-dimethylpyrimidin-4-yl)-5-[2-methyl-4-[[(2R)-1-(trideuteriomethyl)azetidin-2-yl]methoxy]pyrazol-3-yl]pyrazolo[1,5-a]pyridin-2-amine]: the half-inhibitory concentration (IC50) is < 0.847 nM. For the molecule `Cc1onc(OC[C@@H]2COCCN2)c1-c1ccn2nc(NC(=O)C3CC3)cc2c1` [Example 497], the IC50 was determined as 2530 nM. To `Cc1cc(C(=O)NC(C)C)cc(Nc2cc3cc(-c4c(OC[C@H]5CCN5C)cnn4C)ccn3n2)n1` [Example 112, N-isopropyl-2-methyl-6-[[5-[2-methyl-4-[[(2R)-1-methylazetidin-2-yl]methoxy]pyrazol-3-yl]pyrazolo[1,5-a]pyridin-2-yl]amino]pyridine-4-carboxamide] belongs 2.7 nM. To `Cc1cc(Nc2cc3cc(-c4c(O[C@@H]5CN[C@H](C(F)F)C5)noc4C)ccn3n2)nc(C)n1` [Example 327, 5-[3-[(3S,5S)-5-(difluoromethyl)pyrrolidin-3-yl]oxy-5-methyl-isoxazol-4-yl]-N-(2,6-dimethylpyrimidin-4-yl)pyrazolo[1,5-a]pyridin-2-amine] belongs 42.8 nM; to `CCn1ncc(OC[C@@H]2CCNC2)c1-c1ccn2nc(NC(=O)C3CC3)cc2c1` [Example 312, N-[5-[2-ethyl-4-[[(3R)-pyrrolidin-3-yl]methoxy]pyrazol-3-yl]pyrazolo[1,5-a]pyridin-2-yl]cyclopropanecarboxamide], 44.3 nM.

Consider `Cc1onc(O[C@@H]2CCNC[C@@H]2F)c1-c1ccn2nc(NC(=O)C3CC3)cc2c1` (racemic) [Example 211, (rac-cis)-N-[5-[3-[(3-fluoro-4-piperidyl)oxy]-5-methyl-isoxazol-4-yl]pyrazolo[1,5-a]pyridin-2-yl]cyclopropanecarboxamide], for which the IC50 came out at 32.5 nM. For the molecule `CCN1CC[C@@H]1COc1cnn(C)c1-c1ccn2nc(Nc3ccc(OC)cn3)cc2c1` [Example 166, 5-[4-[[(2R)-1-ethylazetidin-2-yl]methoxy]-2-methyl-pyrazol-3-yl]-N-(5-methoxy-2-pyridyl)pyrazolo[1,5-a]pyridin-2-amine], the concentration for half-maximal inhibition (IC50) came to 1.8 nM. Then `Cn1ncc(OCC2(N)COC2)c1-c1ccn2nc(NC(=O)C3CC3)cc2c1` [Example 402, N-[5-[4-[(3-aminooxetan-3-yl)methoxy]-2-methyl-pyrazol-3-yl]pyrazolo[1,5-a]pyridin-2-yl]cyclopropanecarboxamide], with 92.4 nM; and `COC1(COc2noc(C)c2-c2ccn3nc(NC(=O)C4CC4)cc3c2)CN(C)C1` [Example 29, N-[5-[3-[(3-methoxy-1-methyl-azetidin-3-yl)methoxy]-5-methyl-isoxazol-4-yl]pyrazolo[1,5-a]pyridin-2-yl]cyclopropanecarboxamide], with 360 nM; and `[2H]C([2H])([2H])N1CC[C@H](Oc2noc(C)c2-c2ccn3nc(NC(=O)C4CC4)cc3c2)C1` [Example 384, N-[5-[5-methyl-3-[(3S)-1-(trideuteriomethyl)pyrrolidin-3-yl]oxy-isoxazol-4-yl]pyrazolo[1,5-a]pyridin-2-yl]cyclopropanecarboxamide], with 161 nM. Consider `C[C@H]1[C@H](OCc2cnn(C)c2-c2ccn3nc(NC(=O)C4CC4)cc3c2)CN1C` [Example 190, N-[5-[4-[[(2S,3R)-1,2-dimethylazetidin-3-yl]oxymethyl]-2-methyl-pyrazol-3-yl]pyrazolo[1,5-a]pyridin-2-yl]cyclopropanecarboxamide], for which half-maximal inhibition (IC50) was put at 26.5 nM.

For the origin of these results see patent US20240174662A1, “SMALL MOLECULE INHIBITORS OF SALT INDUCIBLE KINASES” (Janssen Biotech, Inc., priority 2021, published 2024).
